Data taken from patent publication US12336986B2, “Treatment and prevention of ocular neurodegenerative disorder” (The Jackson Laboratory, priority 2015, dated 2025).

What was measured:
dorsal root ganglion = details: U.S. Pat. No. 7,776,326; cited from earlier work
[1] = survey of 6000 patients on high doses; cited from earlier work
sciatic nerve axons = details: blocking NAMPT; cited from earlier work
zebrafish = details: two-photon-laser axotomy; cited from earlier work
D2 mice = details: topical administration; cited from earlier work
[2] = system: ganglion cell layer cells (GCL cells); experiment: Whole retina explant culture (axotomy culture model), DAPI nuclei; type: cell-based, mouse
From the text: Mice were euthanized, eyes enucleated and placed immediately into ice-cold HBSS. Retinas were dissected from the eyes in HBSS on ice, flat-mounted with the ganglion cell layer up on a cell culture insert (Millipore), and submerged in tissue culture media containing Neurobasal-A, 1% penicillin-streptomycin (10000 U/mL), 1% glutamine (100×), 1% N-2 (100×) and 1% B-27 (50×) (all ThermoFisher Scientific).
For drug treated retinas tissue culture media was made as above and supplemented with one of the following compounds (all Sigma unless otherwise): β-NAD, NAM (PanReac AppliChem), β-NMN. Retinas were incubated in 6-well plates at 37° C. and 4% CO2 for 5 days before being fixed in 4% PFA and stained with DAPI. (For untreated “Day 0” controls, retinas were dissected and placed straight into 4% PFA.) Retinas were imaged on a Zeiss AxioObserver.

PQQ tolerability in mice = type: in vivo, mouse
[3] = axotomized retinas in culture, 5 days

O=C(O)c1cccnc1 [nicotinic acid]
axonal degeneration after axotomy (dorsal root ganglion): did not work to diminish axonal degeneration | cases of jaundice reported [1]: 3

O=C(/C=C/c1cccnc1)NCCCCC1CCN(C(=O)c2ccccc2)CC1 [FK866]
axon degeneration following axonal injury (sciatic nerve axons): potentially inhibits this axon degeneration | axon degeneration (zebrafish): potently delayed axon degeneration

CC(C)(C)NC[C@H](O)COc1nsnc1N1CCOCC1 [timolol]
IOP (D2 mice): lowers IOP | risk of developing neurodegeneration (D2 mice): reduces the risk of developing neurodegeneration

CC(C)OC(=O)CCC/C=C\C[C@@H]1[C@@H](CC[C@@H](O)CCc2ccccc2)[C@H](O)C[C@@H]1O [Latanoprost]
IOP (D2 mice): lowers IOP | risk of developing neurodegeneration (D2 mice): reduces the risk of developing neurodegeneration

NC(=O)c1ccc[n+]([C@@H]2O[C@H](COP(=O)([O-])O)[C@@H](O)[C@H]2O)c1 [β-NMN, nicotinamide mononucleotide]
protective effect in retina tissue culture [2, 3]: significant protective effects

O=C(O)c1cc(C(=O)O)c2c(n1)C(=O)C(=O)c1cc(C(=O)O)[nH]c1-2 [PQQ, pyrroloquinoline quinone]
nuclear diameter shrinkage (DAPI-labeled nuclei) ([2]; axotomized D2 retinas in culture, 5 days post-axotomy, NAM 100 mM and 500 mM): prevents | ganglion cell layer cell death / cell density [2, 3]: prevents | protective effect in retina tissue culture [2, 3]: protective in retina tissue culture | tolerated dose (PQQ tolerability in mice): ≥ 2,000 mg/kg/day

CC12CC3CC(C)(C1)CC(N)(C3)C2 [memantine]
IOP (D2 mice): lowers IOP | risk of developing neurodegeneration (D2 mice): reduces the risk of developing neurodegeneration
